US20110034472A1, “Novel Compounds for Treatment of Cancer and Disorders Associated With Angiogenesis Function” (UNIVERSITY OF SOUTHERN CALIFORNIA, priority 2004, published 2011)

How the values were obtained:
[1] = test system: PC3 cells; assay: Cell cycle analysis (propidium iodide), SC21, PC3; type: cell-based, human; conditions: 72 hours
Description: FIG. 17 depicts flow cytometric analysis of the cell cycle profiles of DU145, PC3, MDA-MB-435, and HEY cells treated with SC21. […] SC21 induced a G0/G1 phase arrest in DU145 and MDA-MB-435 cells and S phase arrest in PC3 and HEY cells.
Cell cycle perturbations induced by SC21 and camptothecin (CPT) were analyzed by propidium iodide DNA staining. Briefly, exponentially growing PC3 and DU145 cells were treated with different doses of the drug for 24, 48, and 72 hours. At the end of each treatment time, cells were collected and washed with PBS after a gentle centrifugation at 200×g for 5 minutes. Cells were thoroughly resuspended in 0.5 mL of PBS and fixed in 70% ethanol for at least 2 hours at 4° C. Ethanol-suspended cells were then centrifuged at 200×g for 5 minutes and washed twice in PBS to remove residual ethanol. For cell cycle analysis, the pellets were suspended in 1 mL of PBS containing 0.02 mg/mL of propidiumiodide, 0.5 mg/mL of DNase-free RNase A and 0.1% of Triton X-100 and incubated at 37° C. for 30 minutes. Cell cycle profiles were obtained using a FACScan flowcytometer (Becton Dickinson, San Jose, Calif.) and data were analyzed by ModFit LT software (Verity Software House, Inc., Topsham, Me.).
It was noteworthy that SC21 induced S phase arrest in PC3 and HEY cell lines (FIG. 17).

[2] = test system: panel of seven human cancer cell lines; assay: MTT-assay, panel of seven human cancer cell lines; type: cell-based; conditions: read-out: CC50 dose range
Description: The sensitivity of a panel of seven human cancer cell lines to SC144 was assessed by MTT-assay. […] The sensitivity towards SC144 was time- and dose-dependent.

[3] = test system: SF-268 CNS cancer cells; assay: Sensitivity of various cancer cells to SC144, SF-268; type: cell-based; conditions: Homo sapiens
From the text: (§1) The studies were expanded to other cell lines. […] Subnanomolar to low nanomolar potency was also observed in HCT-116 and HT29 colon cancer cell lines (Table 2).

[4] = test system: UACC-257 melanoma cells; assay: Sensitivity of various cancer cells to SC144, UACC-257; type: cell-based; conditions: Homo sapiens
From the text: as §1

[5] = test system: UACC-62 melanoma cells; assay: Sensitivity of various cancer cells to SC144, UACC-62; type: cell-based; conditions: Homo sapiens
From the text: as §1

[6] = test system: MDA-MB-435 cells; assay: Flow cytometric cell cycle analysis, SC144; type: cell-based, human; conditions: 24 h of treatment, SC144 3 uM
From the text: Similar effects were obtained on the asynchronous prostate cancer cell line DU145.

[7] = test system: MDA-MB-435 cells; assay: Annexin V/PI apoptosis analysis, SC144 and CPT; type: cell-based, human; conditions: 48 h; IC80
From the text: Cells were stained with annexin V/PI and analyzed by flow cytometry. Cells in the bottom left quadrant of each panel (Annexin V-negative, PI-negative) are viable, whereas cells in the bottom right quadrant (Annexin V-positive, PI-negative) are in the early stages of apoptosis, and cells in the top right quadrant (Annexin V-positive, PI-positive) are in later stages of apoptosis and necrosis.
An early event in apoptotic cell death is the translocation of the phosphatidyl-serine residues to the outer part of the cell membrane. This event precedes nuclear breakdown, DNA fragmentation, the appearance of most apoptosis-associated molecules, and is readily measured by annexin V binding assay. By this method, SC144 was compared with CPT.

[8] = test system: HCT 116 p53^−/− colon cancer cells; assay: MTT cytotoxicity assay, HCT 116 p53-/-; type: cell-based, human; conditions: Homo sapiens, 72 h
From the text: Human breast cancer cells MDA-MB-435 and colon cancer HT29, p53 mutant were purchased from the American Type Cell Culture (Manassas, Va.). The HCT116 P53^+/+ and HCT116 P53^−/− cells were kindly provided by Dr. Bert Vogelstein (Johns Hopkins Medical Institutions, Baltimore, Md.). Human prostate cancer cells, LNCaP, were kindly provided by Richard Cote (University of Southern California Keck School of Medicine). Cells were maintained as monolayer cultures in RPMI 1640 media supplemented with 10% fetal bovine serum (Gemini-Bioproducts, Woodland, Calif.) and 2 mmol/L L-glutamine at 37° C. in a humidified atmosphere of 5% CO2. To remove the adherent cells from the flask for passaging and counting, cells were washed with PBS without calcium or magnesium, incubated with a small volume of 0.25% trypsin-EDTA solution (Sigma-Aldrich, St. Louis, Mo.) for 5-10 min, and washed with culture medium and centrifuged. All experiments were performed using cells at exponential growth stage. Cells were routinely checked for mycoplasma contamination using a PCR-based assay (Stratagene, Cambridge, UK).
Cytotoxicity was assessed by a 3-(4,5-dimethylthiazol-2-yl)-2,5-diphenyltetrazolium bromide (MTT) assay as previously described.^9 Briefly, cells were seeded in 96-well microtiter plates and allowed to attach. Cells were subsequently treated with continuous exposure to the corresponding drug for 72 h. An MTT solution (at a final concentration of 0.5 mg/mL) was added to each well, and cells were incubated for 4 h at 37° C. After removal of the medium, DMSO was added and the absorbance was read at 570 nm. All assays were done in triplicate. The IC50 was then determined for each drug from a plot of log (drug concentration) versus percentage of cells killed.

[9] = test system: MDA-MB-435 xenograft; assay: microPET study of nude mouse with MDA-MB-435 xenograft treated with SC144; type: in vivo; conditions: 4 mg/kg daily i.p. 5 days; caliper measurements for 5 weeks
Description: Top row, baseline scans: (A) equilibrium-phase FDG, 30 min post injection; (B) FMAU, 10 min post injection; (C) FMAU, 60 min post injection. Bottom row, follow-up scans: (D) FDG, 30 min post injection; (E) FMAU, 10 min post injection; (F) FMAU, 60 min post injection. […] After five days of dosing, the drug treatment was discontinued and the follow-up scans were obtained on days 6 and 7.
[^18F]FDG is currently the most widely used radiotracer for imaging therapy response in oncology with PET. PET/[^18F]FDG measures viable cell density in tumors and also provides information on the expression of glucose transporters and hexokinase activity. […] Following cellular uptake, FMAU is phosphorylated by thymidine kinase and incorporated into DNA.
In later images at 30 and 60 min (FIG. 8C), FMAU had filled up the whole tumor, indicating the presence of dividing cells throughout.
FIGS. 8D-F show a repeat study of the same mouse after 5 days of treatment.

Row | SMILES | accumulation in S phase [1] [%] | CC50 [2] [µM] | CC50 [3] [nM] | CC50 [4] [nM] | CC50 [5] [nM] | cells retained in S-phase [6] [%] | early-apoptotic cells [7] [%] | late-apoptosis/necrosis [7] [%] | IC50 [8] [nM] | long-term reduction of tumor volume compared with sham-treated control mice [9] [%]
1 | O=C(NNC(=O)c1ccccc1O)C1=CC2C=CC=CC2C=C1O (stereo not shown) [SC21] | 52 | – | – | – | – | – | – | – | – | –
2 | O=C(NNc1nc2cc(F)ccc2n2cccc12)c1cnccn1 [SC144, Pyrazine-2-carboxylic acid N′-(7-fluoro-pyrrolo[1,2-a]quinoxalin-4-yl)-hydrazide] | – | 0.7 to 10 | 300 | 400 | 800 | 80 | 37 | 16 | 900 ± 40 | > 50
